US20090131302A1, “Transient receptor potential vanilloid 1 and uses thereof” (priority 2007, published 2009)
“Also recorded” adds a separate entry of the source.

Experiments:
[1] = in vivo; cited from earlier work
calcium channels = details: at high concentrations; cited from earlier work
TRPV1 [2] = target: T1, TRPV1 (Mus musculus, UniProt Q704Y3); details: cited from earlier work
T1 construct: host or cells: colon and jejunal afferent fibre preparations

TRPV1 [3] = target: T2, TRPV1 (Rattus norvegicus, UniProt O35433); experiment: Neonatal TRPV1 antagonist pre-treatment before P10 colonic acetic acid; sensitivity to colorectal distention at 8 weeks; format: in vivo
T2 construct: endogenous in cells; host or cells: living rats (neonatal and adult); DRG and spinal cord tissue for the expression work
Experimental: (§1) In the first experiment, 3 groups of 10 neonatal rats were used. While Group 1 received SB-366791, 1.3 mg/kg subcutaneously 30 minutes prior to colonic acetic acid administration. Group 2 received vehicle subcutaneously prior to colonic acetic acid administration, and Group 3 received vehicle prior to colonic saline administration. In the second experiment, 3 groups of 10 neonatal rats were used. All rats received a drug or vehicle subcutaneously 24 hours and 30 minutes prior to colonic acetic acid administration. Group 4 received SB-366791, 2.6 mg/kg, Group 5 received I-RTX, 2 mg/kg, and Group 6 received vehicle. For both experiments, at 8 weeks of age, EMG recordings and abdominal withdrawal reflex grades were simultaneously obtained in response to graded colorectal distention. To test the effect of TRPV1 inhibitors on adults, 2 groups of 10 rats were used: on post-natal day 10, Group 7 received colonic acetic acid, Group 8 received colonic saline. At 7 weeks of age, Groups 7 and 8 were split: half of each group received SB-366791, 1.3 mg/kg, and half vehicle, subcutaneously 30 minutes prior to colorectal distention. After one week of period, vehicle and drug groups were crossed-over and sensitivity to colorectal distention was measured again.
Ten days old rat pups received TRPV1 antagonist or vehicle subcutaneously 30 minutes prior to colon acetic acid infusion and were tested for sensitivity to colorectal distention at 8 weeks of age.
Thus, antagonism of the TRPV1 prior to neonatal administration of acetic acid attenuated the development of sensitivity to colorectal distention.

TRPV1 [4] = target: TRPV1 (Homo sapiens, UniProt Q8NER1); details: cited from earlier work
TRPV1 [5] = details: cited from earlier work
TRPV1 [6] = target: T2, TRPV1; experiment: Neonatal colonic capsaicin infusion; sensitivity to colorectal distention at 7 weeks; format: in vivo; details: 0.2 ml of 50 mg/ml into colon at P10, tested at 7 weeks, 20, 40, 60, 80 mm Hg, vs unmanipulated and vehicle
Experimental: To treat neonatal rats with capsaicin, ten day old rat pups received an infusion of 0.2 mls of 50 mg/ml capsaicin or 0.2 mls vehicle: 10% ethanol, 10% Tween 20, 80% saline or were left unmanipulated. Visceral sensitivity and inflammatory parameters were measured in these rats between 8 and 12 weeks of age. […] After 4 weeks, rats were tested for sensitivity to colorectal distention.
Visceral hypersensitivity was measured by grading the response of rats to colorectal distention as previously described.^11 Briefly, under mild sedation with 1% Brevital (Eli Lily & Co Indianapolis, Ind.) 25 mg/kg i.p.), a flexible balloon (5 cm) constructed from a surgical glove finger attached to a tygon tubing was inserted 8 cm into the descending colon and rectum via the anus and held in place by taping the tubing to the tail. Rats were placed in small Lucite cubicles (20×8×8 cm) (Bioengineering Department, UTMB) and were allowed to adapt for 30 minutes. […] Pressure was measured using a sphygmomanometer connected to a pressure transducer. […] Behavioral responses to colorectal distention were measured by visual observation of the abdominal withdrawal reflex by blinded observer and the assignment of an AWR score as follows: 1=Normal behavior without response 2=Contraction of abdominal muscles; 3=Lifting of abdominal wall; 4=Body arching and lifting of pelvic structures. […]

p38 and ERK = details: peripheral administration; cited from earlier work
MEK = details: cited from earlier work
[7] = system: voltage-gated Ca++ currents or the hyperpolarization activated current in rat DRG neurons; details: at 1 mM; cited from earlier work
[8] = system: AMPA or NMDA mediated hippocampal synaptic transmission; details: cited from earlier work
TRPV1 [9] = details: in vivo; cited from earlier work
TRPV1 [10] = target: T2, TRPV1; experiment: TRPV1 antagonism in adult rats neonatally treated with acetic acid or saline; graded colorectal distention; format: in vivo; details: 1.3 mg/kg 30 minutes prior to CRD
Experimental: as §1
AWR scores of drug and vehicle treated rats as adults within each neonatal treatment group (P10 acetic acid or P10 saline) were compared at each distention pressure by Wilcoxon signed rank test.

[11] = system: 50 receptors of various types; parameters: dose or concentration left out as unconfirmed; details: cited from earlier work
p38 = details: models of inflammation and neuropathy; cited from earlier work
[12] = 1.3 mg/kg s.c. 30 minutes prior to P10 acetic acid, tested at 8 weeks, 40, 60 and 80 mm Hg, vs vehicle

Chain of TRPV1 (Homo sapiens, UniProt Q8NER1) (Q8NER1 whole entry, species assumed): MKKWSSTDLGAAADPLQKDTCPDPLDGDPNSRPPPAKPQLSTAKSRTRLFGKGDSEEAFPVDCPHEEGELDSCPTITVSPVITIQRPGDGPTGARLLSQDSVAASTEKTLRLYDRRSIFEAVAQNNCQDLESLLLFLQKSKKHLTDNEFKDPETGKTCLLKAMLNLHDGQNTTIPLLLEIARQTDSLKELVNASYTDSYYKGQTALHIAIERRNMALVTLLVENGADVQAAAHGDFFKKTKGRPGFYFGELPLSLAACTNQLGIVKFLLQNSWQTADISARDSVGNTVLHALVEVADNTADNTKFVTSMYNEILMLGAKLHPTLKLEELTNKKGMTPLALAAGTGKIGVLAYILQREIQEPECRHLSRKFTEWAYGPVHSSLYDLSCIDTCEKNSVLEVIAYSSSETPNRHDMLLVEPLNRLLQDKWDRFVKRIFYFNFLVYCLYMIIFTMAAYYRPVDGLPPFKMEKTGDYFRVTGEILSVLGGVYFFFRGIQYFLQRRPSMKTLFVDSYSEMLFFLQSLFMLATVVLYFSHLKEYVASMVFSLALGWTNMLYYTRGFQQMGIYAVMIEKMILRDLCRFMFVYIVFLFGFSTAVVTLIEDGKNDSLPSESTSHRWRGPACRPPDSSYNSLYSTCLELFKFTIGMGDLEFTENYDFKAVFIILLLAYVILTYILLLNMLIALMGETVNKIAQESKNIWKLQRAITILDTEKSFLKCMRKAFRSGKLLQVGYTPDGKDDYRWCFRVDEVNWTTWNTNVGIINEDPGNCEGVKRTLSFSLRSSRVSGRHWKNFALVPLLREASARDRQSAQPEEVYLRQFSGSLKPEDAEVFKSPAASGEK
T2 sequence (O35433 whole entry): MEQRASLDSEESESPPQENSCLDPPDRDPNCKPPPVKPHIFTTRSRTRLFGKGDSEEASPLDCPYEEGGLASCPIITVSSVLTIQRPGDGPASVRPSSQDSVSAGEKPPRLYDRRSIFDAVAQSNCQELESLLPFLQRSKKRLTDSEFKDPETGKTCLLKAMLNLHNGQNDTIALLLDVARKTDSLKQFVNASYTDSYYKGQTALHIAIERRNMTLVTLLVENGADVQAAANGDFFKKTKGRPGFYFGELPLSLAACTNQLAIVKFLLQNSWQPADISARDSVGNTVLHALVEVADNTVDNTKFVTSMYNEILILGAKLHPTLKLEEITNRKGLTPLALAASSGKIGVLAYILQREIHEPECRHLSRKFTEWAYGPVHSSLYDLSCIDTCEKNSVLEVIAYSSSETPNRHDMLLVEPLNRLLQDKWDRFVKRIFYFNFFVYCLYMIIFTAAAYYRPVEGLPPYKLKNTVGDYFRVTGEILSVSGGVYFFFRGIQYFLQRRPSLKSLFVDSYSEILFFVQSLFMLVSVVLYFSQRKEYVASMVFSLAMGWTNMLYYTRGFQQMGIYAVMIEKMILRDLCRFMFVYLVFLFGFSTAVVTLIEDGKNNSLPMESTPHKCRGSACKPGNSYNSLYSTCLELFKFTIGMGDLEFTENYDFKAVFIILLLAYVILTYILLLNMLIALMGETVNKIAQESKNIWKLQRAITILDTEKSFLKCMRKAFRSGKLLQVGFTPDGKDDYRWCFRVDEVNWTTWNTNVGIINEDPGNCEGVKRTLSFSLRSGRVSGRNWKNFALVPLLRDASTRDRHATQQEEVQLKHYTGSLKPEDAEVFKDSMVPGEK
T1 sequence (Q704Y3 whole entry): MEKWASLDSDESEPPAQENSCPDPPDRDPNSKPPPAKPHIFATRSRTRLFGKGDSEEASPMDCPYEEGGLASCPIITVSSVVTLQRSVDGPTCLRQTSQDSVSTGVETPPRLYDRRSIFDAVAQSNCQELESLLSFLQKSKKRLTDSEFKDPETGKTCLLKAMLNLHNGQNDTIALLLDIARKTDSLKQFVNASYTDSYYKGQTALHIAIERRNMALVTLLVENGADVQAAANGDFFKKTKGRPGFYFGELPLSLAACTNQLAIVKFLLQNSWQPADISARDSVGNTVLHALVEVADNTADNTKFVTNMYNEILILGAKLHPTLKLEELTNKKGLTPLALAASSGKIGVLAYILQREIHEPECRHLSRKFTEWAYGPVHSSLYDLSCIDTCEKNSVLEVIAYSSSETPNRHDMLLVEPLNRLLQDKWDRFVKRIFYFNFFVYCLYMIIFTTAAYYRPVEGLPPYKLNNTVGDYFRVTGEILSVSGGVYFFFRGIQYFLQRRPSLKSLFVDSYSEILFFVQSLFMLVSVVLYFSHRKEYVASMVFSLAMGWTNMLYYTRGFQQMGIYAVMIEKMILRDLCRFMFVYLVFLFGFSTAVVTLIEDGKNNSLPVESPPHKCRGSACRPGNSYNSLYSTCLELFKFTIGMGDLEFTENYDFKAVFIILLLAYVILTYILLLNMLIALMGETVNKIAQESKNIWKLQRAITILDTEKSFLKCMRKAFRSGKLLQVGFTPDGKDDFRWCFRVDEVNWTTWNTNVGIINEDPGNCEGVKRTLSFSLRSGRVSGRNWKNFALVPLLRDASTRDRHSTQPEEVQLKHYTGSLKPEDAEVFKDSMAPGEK

In the case of `Oc1cc2c(cc1O)CN(C(=S)NCCc1ccc(Cl)cc1)CCC2` [capsazepine], the pharmacokinetic properties [1] is listed as “poor pharmacokinetic properties”, the calcium channel block (calcium channels) is listed as “blocks calcium channels at high concentrations” and the “colon afferent fiber responses to stretch” value (TRPV1 [2]) is listed as “inhibited”. The “jejunal afferent responses to acid” value (TRPV1 [2]) was “inhibited”.

For `C=C(C)[C@]12C[C@@H](C)[C@@]34O[C@](Cc5ccccc5)(O[C@@H]1[C@@H]3C=C(COC(=O)Cc1cc(I)c(O)c(OC)c1)C[C@]1(O)C(=O)C(C)=C[C@@H]41)O2` [I-RTX, 5′Iodoresiniferatoxin], the “sensitivity to colorectal distention by AWR grade” value (“sensitivity … by AWR grade” below) (TRPV1 [3]; 2 mg/kg s.c. 24 hours and 30 minutes prior to P10 acetic acid, 8 weeks, 10, 20 and 40 mm Hg) was “reduced sensitivity”, the “sensitivity … by AWR grade” value (TRPV1 [3]; 2 mg/kg s.c. 24 hours and 30 minutes prior to P10 acetic acid, 8 weeks, 10, 20 and 40 mm Hg, listed as 1-RTX) was “significant decreased sensitivity” and the “sensitivity to colorectal distention by EMG” value (“sensitivity … by EMG” below) (TRPV1 [3]; 2 mg/kg s.c. 24 hours and 30 minutes prior to P10 acetic acid, 8 weeks, 20, 40, 60 and 80 mm Hg) was “reduced sensitivity”. For the same compound, the “sensitivity … by EMG” value (TRPV1 [3]; 2 mg/kg s.c. 24 hours and 30 minutes prior to P10 acetic acid, 8 weeks, 20, 40, 60 and 80 mm Hg, listed as 1-RTX) was “significant decreased sensitivity”, the “potency and selectivity compared with capsezapine” value (TRPV1 [4]) was “more potent and selective antagonists” and the “blocking TRPV1-mediated effects in several animal models in vivo” value (TRPV1 [5]) was “effective in blocking TRPV1-mediated effects”.

In the case of `COc1cc(CNC(=O)CCCC/C=C/C(C)C)ccc1O` [capsaicin], the “sensitivity to colorectal distention” value (TRPV1 [6]) is given as “increased sensitivity”, the “sensitivity to colorectal distention” value (TRPV1 [6]; listed as CAP) is given as “significantly more sensitive to colorectal distention” and the “p38 and ERK activation in dorsal root ganglia neurons” value (p38 and ERK) is given as “activates p38 and ERK”.

In the case of `N#CC(=C(/N)Sc1ccccc1N)/C(C#N)=C(\N)Sc1ccccc1N` [U0126], the “epinephrine induced mechanical hypersensitivity” value (MEK; in vivo) is listed as “reduces epinephrine induced mechanical hypersensitivity” and the “thermal and mechanical hypersensitivity” value (MEK; models of inflammation and neuropathic pain) is listed as “attenuates thermal and mechanical hypersensitivity”.

For `COc1cccc(NC(=O)C=Cc2ccc(Cl)cc2)c1` [SB-366791, N-(3-Methoxyphenyl)-4-chlorocinnamide], the “effect on hyperpolarization activated current” value [7] is listed as “little or no effect”, the “effect on voltage-gated Ca++ currents” value [7] is listed as “little or no effect” and the “EMG activity in response to colorectal distention” value (TRPV1 [3]; [12]) is listed as “significantly less”. For the same compound, the “sensitivity … by AWR grade” value (TRPV1 [3]; [12]) was “significant decreases in sensitivity to colorectal distention”, the “sensitivity … by AWR grade” value (TRPV1 [3]; 2.6 mg/kg s.c. 24 hours and 30 minutes prior to P10 acetic acid, 8 weeks, 10, 20, 40 and 60 mm Hg) was “reduced sensitivity; also recorded: significantly decreased sensitivity” and the “sensitivity … by EMG” value (TRPV1 [3]; 2.6 mg/kg s.c. 24 hours and 30 minutes prior to P10 acetic acid, 8 weeks, 20, 40 and 60 mm Hg) was “reduced sensitivity; also recorded: significantly decreased sensitivity”. For the same compound, the “effects on AMPA or NMDA mediated hippocampal synaptic transmission” value [8] was “no effects”, the “capsaicin effects on thermoregulation” value (TRPV1 [9]) was “block capsaicin effects on thermoregulation” and the acid-mediated activation (TRPV1 [4]) was “blocks acid-mediated activation”. The “potency and selectivity compared with capsezapine” value (TRPV1 [4]) was “more potent and selective antagonists”, the Ki (TRPV1 [4]; competitive antagonist of capsaicin) was 18 nM and the “AWR response to colorectal distention, P10 saline treated adult rats” value (TRPV1 [10]; 10-80 mm Hg) was “no significant effect”. The “AWR response to colorectal distention, P10 acetic acid treated adult rats” value (TRPV1 [10]; 10 and 80 mm Hg) was “No significant differences”, the “AWR response to colorectal distention, P10 acetic acid treated adult rats” value (TRPV1 [10]; 20 mm Hg) was “trend towards significance” and the “AWR response to colorectal distention, P10 acetic acid treated adult rats” value (TRPV1 [10]; 40 and 60 mm Hg, vs vehicle) was “reduced sensitivity to CRD”. For the same compound, the “AWR response to colorectal distention, P10 acetic acid treated adult rats” value (TRPV1 [10]; 40 and 60 mm Hg, vs vehicle, listed as SB-366,791) was “significant decline” and the “effect in in vitro binding assays against 50 receptors of various types” value [11] was “little or no effect”.

For `C[S+]([O-])c1ccc(-c2nc(-c3ccncc3)c(-c3ccc(F)cc3)[nH]2)cc1` (stereo not drawn) [SB-203580], the “development of behavioral hypersensitivity” value (p38) is given as “blocks the development of behavioral hypersensitivity”.
